Data taken from patent US6632981B1, “DNA sequences encoding polypeptides having beta-1,3-glucanase activity” (Novartis Finance Corporation, priority 1988, dated 2003).

Experiments:
[1] = tested on: chemically regulatable chimeric genes coding for GUS, AHAS or BT; experiment: Primer extension assay for mRNA of chemically regulatable chimeric genes; type: in vivo; conditions: callus or regenerated plant material from transgenic plants; level proportional to amount of regulator applied
Outline: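 Plant material was harvested after chemical induction, and total RNA was annealed to a radiolabeled probe (70° C. for 10 minutes, then slow cooling to 37° C. overnight). Reverse transcriptase extension ran for 30 minutes at 37° C. Products were resolved on a 6% sequencing gel and visualized by autoradiography.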

[2] = tested on: cucumber chitinase protein; experiment: Cucumber chitinase ELISA in transgenic plants carrying cucumber chitinase genomic constructs after leaf treatment; type: in vivo, tobacco; set-up: key: —: Indicates that sample has no detectable level of chitinase protein
Method: Once the transgenic plants are transferred to soil, they are grown 4-5 weeks before treatment. The following solutions are applied to the leaves with sterile paintbrushes:
3. Methyl benzo-1,2,3-thiadiazole-7-carboxylate. The solution is made by resuspending a wettable powder containing a formulation of the chemical with 25% active ingredient in sterile water at a concentration of 1 mg/ml.
4. Methyl 2,6-dichloroisonicotinate, prepared as above. Alternatively, 30 ul of 10 mM sodium phosphate buffer, pH 7.0, or 30 ul of the same buffer containing tobacco mosaic virus (50-100 pfu/30 ul) is applied to the leaves which have been sprinkled with carborundum. The buffers are distributed over the whole treated leaf by gentle rubbing.
The plants are allowed to continue to grow for seven days. The treated leaves are then harvested, frozen in liquid nitrogen and stored at −80° C. until they are assayed.
Frozen leaf tissue is ground in a mortar with a pestle in the presence of liquid nitrogen to produce a fine powder. 0.33 g of each tissue sample is added to 1 ml extraction buffer (50 mM Tris-HCl, pH 8.5, 0.2M 2-mercaptoethanol, 2 mM phenyl methyl sulfonyl fluoride, 2 mM benzamidine, 10 mM epsilon-aminocaproic acid, 1 mM leueptine) and the sample homogenized for one minute with an Ultra Turrax Mixer (shaft #S25N-8G, Tekmar Co. Cincinnati, Ohio). The samples are then centrifuged at 48,000×g for fifteen minutes at 4° C. and the supernatant removed from the pelleted material. The extracts are diluted at least 1:50 in ELISA diluent (101 mM sodium phosphate, pH 7.4, 140 mM sodium chloride, 0.05% Tween 20, 0.02% sodium azide, 1% BSA).
A microtiter plate is coated with monoclonal antibody specific to the cucumber chitinase protein at 2 ug/ml in borate-buffered saline (100 mM boric acid, 25mM sodium borate, 75 mM sodium chloride; pH 8.5) using 50 ul per well. The plate is incubated overnight at 4° C. The plate is washed with ELISA wash buffer (10 mM Tris-HCl, pH 8.0, 0.05% Tween 20, 3 mM sodium azide) and BSA blocking solution (10 mM sodium phosphate, pH 7.4, 140 mM sodium chloride, 0.02% sodium azide, 1% BSA) is added to completely cover each well. Incubation is for at least 30 minutes at room temperature.
The microtiter plate is washed with ELISA wash buffer and 50 ul of extract is added to the appropriate well. 50 ul of each of 10 chitinase protein standards (ranging from 0 ng/ml to 31.64 ng/ml) was also added to the appropriate well and the plate is incubated for two hours at 4° C. The plate is washed with ELISA wash buffer and 50 ul of rabbit polyclonal antibody to the cucumber chitainase protein (diluted 1:15,000 in ELISA diluent) is added to the well and incubated for one hour at 37° C. After washing with ELISA wash buffer, 50 ul of goat anti-rabbit conjugated to alkaline phosphatase (1:500 in ELISA diluent) is added to each well and incubated at 37° C. for one hour. The plate is then washed and 50 ul alkaline phosphatase substrate solution (0.6 mg/ml p-nitrophenyl phosphate in 0.5 mM magnesium chloride and 10% diethanolamine) is added to each well. After a 30 minute incubation at room temperature, 50 ul of 3N sodium hydroxide is added to each well to stop the reaction.
The plate is read at 405 nm and 492 nm on an HP Genenchem ELISA plate reader. The output values are expressed as A(405 nm)-A(492 nm)−0.092 to allow for correction of p-nitrophenyl phosphate as substrate. The chitinase standards for each plate are graphed logarithmically. The amount of chitinase protein in each sample is determined from the standard curve. If the amount of chitinase in any sample is close to the upper limit of the curve, the sample is assayed again at a greater dilution. Final results are expressed in the table below in ug chitinase per gram tissue.

For `O=C(O)c1ccccc1O` [Salicylic acid, salicylic acid], the “level of mRNA of the chimeric gene (GUS, AHAS or BT primer), primer extension assay” value [1] was “elevated levels of mRNA”, the “ELISA ASSAY RESULTS (ug chitinase/g tissue)” value (shortened to “ELISA ASSAY RESULTS”) ([2]; line Bam-1 (2001/BamChit), leaves harvested after seven days, water 0.066, buffer —) was “—” and the “ELISA ASSAY RESULTS” value ([2]; line Bam-3 (2001/BamChit), seven days, water —, buffer —) was “—”. For the same compound, the “ELISA ASSAY RESULTS” value ([2]; line Bam-4 (2001/BamChit), seven days, water —, buffer —) was “—”, the “ELISA ASSAY RESULTS” value ([2]; line Bam-8 (2001/BamChit), seven days, water —, buffer —) was “—” and the “ELISA ASSAY RESULTS” value ([2]; line Bam-9 (2001/BamChit), seven days, water —, buffer —) was 0.522 ug chitinase/g tissue. For the same compound, the “ELISA ASSAY RESULTS” value ([2]; line Bam-10 (2001/BamChit), seven days, water 0.059, buffer 0.084) was 0.093 ug chitinase/g tissue, the “ELISA ASSAY RESULTS” value ([2]; line Bam-12 (2001/BamChit), seven days, water —, buffer —) was “—” and the “ELISA ASSAY RESULTS” value ([2]; line Bam-14 (2001/BamChit), seven days, water —, buffer —) was “—”. For the same compound, the “ELISA ASSAY RESULTS” value ([2]; line Bam-15 (2001/BamChit), seven days, water —, buffer —) was “—”, the “ELISA ASSAY RESULTS” value ([2]; line Bam-16 (2001/BamChit), seven days, water —, buffer —) was 0.690 ug chitinase/g tissue and the “ELISA ASSAY RESULTS” value ([2]; line Bam-17 (2001/BamChit), seven days, water —, buffer —) was “—”. The “ELISA ASSAY RESULTS” value ([2]; line Bam-19 (2001/BamChit), seven days, water —, buffer —) was 0.760 ug chitinase/g tissue, the “ELISA ASSAY RESULTS” value ([2]; line Bam-21 (2001/BamChit), seven days, water —, buffer —) was “—” and the “ELISA ASSAY RESULTS” value ([2]; line Bam-23 (2001/BamChit), seven days, water —, buffer —) was “—”. For the same compound, the “ELISA ASSAY RESULTS” value ([2]; line Bam-24 (2001/BamChit), seven days, water —, buffer —) was “—”, the “ELISA ASSAY RESULTS” value ([2]; line Bam-25 (2001/BamChit), seven days, water —, buffer —) was 0.522 ug chitinase/g tissue and the “ELISA ASSAY RESULTS” value ([2]; line Bam-26 (2001/BamChit), seven days, water —, buffer —) was “—”. For the same compound, the “ELISA ASSAY RESULTS” value ([2]; line Nco-2 (2001/NcoChit), seven days, water —, buffer —) was “—”, the “ELISA ASSAY RESULTS” value ([2]; line Nco-3 (2001/NcoChit), seven days, water —, buffer —) was “—” and the “ELISA ASSAY RESULTS” value ([2]; line Nco-5 (2001/NcoChit), seven days, water —, buffer —) was “—”. For the same compound, the “ELISA ASSAY RESULTS” value ([2]; line Nco-8 (2001/NcoChit), seven days, water —, buffer —) was “—”, the “ELISA ASSAY RESULTS” value ([2]; line Nco-9 (2001/NcoChit), seven days, water —, buffer —) was “—” and the “ELISA ASSAY RESULTS” value ([2]; line Nco-10 (2001/NcoChit), seven days, water —, buffer —) was “—”. The “ELISA ASSAY RESULTS” value ([2]; line Nco-11 (2001/NcoChit), seven days, water —, buffer —) was “—”, the “ELISA ASSAY RESULTS” value ([2]; line Nco-15 (2001/NcoChit), seven days, water —, buffer —) was “—” and the “ELISA ASSAY RESULTS” value ([2]; line Nco-16 (2001/NcoChit), seven days, water 0.555, buffer 0.566) was 0.555 ug chitinase/g tissue. For the same compound, the “ELISA ASSAY RESULTS” value ([2]; line Nco-17 (2001/NcoChit), seven days, water —, buffer —) was “—”, the “ELISA ASSAY RESULTS” value ([2]; line Sal-2 (2001/SalChit), seven days, water —, buffer —) was “—” and the “ELISA ASSAY RESULTS” value ([2]; line Sal-3 (2001/SalChit), seven days, water —, buffer —) was “—”. For the same compound, the “ELISA ASSAY RESULTS” value ([2]; line Sal-4 (2001/SalChit), seven days, water —, buffer —) was 0.047 ug chitinase/g tissue, the “ELISA ASSAY RESULTS” value ([2]; line Sal-5 (2001/SalChit), seven days, water —, buffer —) was “—” and the “ELISA ASSAY RESULTS” value ([2]; line Sal-7 (2001/SalChit), seven days, water —, buffer —) was “—”. For the same compound, the “ELISA ASSAY RESULTS” value ([2]; line Sal-8 (2001/SalChit), seven days, water —, buffer —) was “—”, the “ELISA ASSAY RESULTS” value ([2]; line Sal-9 (2001/SalChit), seven days, water —, buffer —) was 1.052 ug chitinase/g tissue and the “ELISA ASSAY RESULTS” value ([2]; line Sal-11 (2001/SalChit), seven days, water —, buffer —) was “—”. For the same compound, the “ELISA ASSAY RESULTS” value ([2]; line Sal-12 (2001/SalChit), seven days, water —, buffer —) was “—”, the “ELISA ASSAY RESULTS” value ([2]; line Sal-13 (2001/SalChit), seven days, water —, buffer —) was “—” and the “ELISA ASSAY RESULTS” value ([2]; line Sal-14 (2001/SalChit), seven days, water —, buffer —) was “—”. For the same compound, the “ELISA ASSAY RESULTS” value ([2]; line Sal-15 (2001/SalChit), seven days, water —, buffer —) was “—”.
